According to patent US20170283378A1, “INDOLE DERIVATIVES FOR THE PREVENTION AND/OR TREATMENT OF DIABETES AND ASSOCIATED METABOLIC DISORDERS” (Consejo Superior de Investigaciones Cientificas (CSIC), priority 2014, published 2017):

Tested on: AMPK
Test: AMPK activation measurements in cultured cells (Western Blot of pThr172 AMPK alpha and pSer79 ACC)
Type: cell-based, human
Details: for activation of AMPK (anti-phosphoThr172 AMPK alpha, Western Blot) / phosphorylation of ACC substrate (anti-phosphoSer79ACC, Western Blot): HEK293 cells treated for 1 hour; for endogenous levels of AMPKα pT172: HEK293 cells, increasing doses, phenformin 5 mM as activation control; for activation of the AMPK complex: at the indicated doses (figures), cultured HEK293 cells
Protocol: AMPK activation measurements in cultured cells by means of compounds 7 and 16.
Cell line and treatments. The cell line that was used in the treatments with the different assayed reagents was HEK293T (human embryonic kidney cells). Cells were grown in DMEM (Dulbecco's Modified Eagle's Medium) with 25 mM of glucose supplemented with 10% of inactivated fetal bovine serum, 2 mM glutamine, 100 units/ml of penicillin and 100 μg/ml of streptomycin, in a humid atmosphere at 37° C. with 5% of CO2. Cells were grown on 60 mm (p. 60) plates to obtain 70-80% of confluence. Cells were washed in Krebs Ringer buffer (KRB: NaCI […], CaCl2 […], KH2PO4 0.5 mM, KCl 3 mM, NaHCO3 2.5 mM, MgSO40.5 mM, HEPES 10 mM pH 7.4, 95:5 O2/CO2) tempered at 37° C. and subsequently treated for 1 hour at 37° C. in a culture oven, adding the adequate quantities of 7 and 16 (5 mM stock in DMSO) dissolved in KRB/25 mM glucose to reach the final concentrations indicated in the figures. Phenformin 5 mM was used as an activation control.
Preparation of HEK293T cell extracts. After the corresponding treatments, the supernatant was removed and cells were quickly-frozen in liquid N2. The plates were processed one by one and kept in ice , firstly adding the cold lysis buffer. The composition of the buffer was as follows: Tris 10 mM pH 7.4, EDTA 15 mM pH 8.0, NaF 50 mM, Na4P2O7 15 mM, sacarose 0.6 M, 2-Mercaptoethanol 15 mM, a mixture of protease inhibitors without EDTA (Roche) and 1 mM PMSF. Cells were collected in a lysis buffer with the help of a scraper and were lysed, passing each sample through 24 G×⅝″ syringes four times. A small amount was reserved to measure the quantity of protein using the Bradford protein assay and loading buffer for electrophoresis was added to the rest and boiled for 5 min maintaining the samples at −20° C. until their use. The concentration of proteins was determined through the Bradford method using the Bio-Rad Bradford Protein Assay Reagent (BioRad).
Protein analysis by Western Blot. The protein extracts were analysed using SDS-PAGE in gels with 8% or 10% acrylamide and 1.5 mm thick. 30 µg of protein were loaded and transferred to a PVDF (Millipore) membrane for 1.5 hours at 100 V. Blockage was performed using 5% of skimmed milk in TBS-T for 1 hour at room temperature. Immunodetection was performed by incubating the primary antibody all night at 4° C. After three 10-minute washes at room temperature using TBS-T, they were incubated with their corresponding secondary antibody conjugated to HRP. After the three 10-minute washes at room temperature using TBS-T, the membranes were developed using ECL plus (Pierce) and processed using a FUJI LAS 3000 (Fujifilm) unit. The antibodies used were: anti-pAMPKαThr172, anti-AMPKβ1/β2, anti-ACC and anti-pACCser79 from the company Cell Signaling Technology (Danvers, Mass., USA) diluted 1:1000, and the HRP goat anti-rabbit secondary antibody from the company Santa Cruz Technology at a dilution of 1:5000 or 1:10000. The detection of bands with the anti-pAMPKαThr172 and anti-pACCser79 antibodies (AMPK substrate) with respect to their respective loading controls (anti-AMPKβ1/β2 and anti-ACC) was taken as an indicative of AMPK activation.

[1] = concentrations between 12.5 and 50 μM, FIG. 1
[2] = concentrations between 12.5 and 100 μM, FIG. 2

Structure (SMILES) | activation of AMPK (anti-phosphoThr172 AMPK alpha, Western Blot) [1] | phosphorylation of ACC substrate (anti-phosphoSer79ACC, Western Blot) [1] | endogenous levels of AMPKα pT172 | activation of the AMPK complex | activation of AMPK (anti-phosphoThr172 AMPK alpha, Western Blot) [2] | phosphorylation of ACC substrate (anti-phosphoSer79ACC, Western Blot) [2]
O=C(O)c1c(-c2ccc(-c3ccccc3O)cc2)c2ccccc2n1Cc1ccccc1 [compound 7, 1-benzyl-3-(2′-hydroxy-[1,1′-biphenyl]-4-yl)-1H-indole-2-carboxylic acid] | activates AMPK in a dose-dependent manner | increase in phosphorylation | increase in endogenous levels of AMPKα pT172 | capable of inducing the activation of the AMPK complex |  | 
O=C(O)c1[nH]c2ccccc2c1-c1ccc(-c2ccccc2O)cc1 [compound 16, 3-(2′-hydroxy-[1,1′-biphenyl]-4-yl)-1H-indole-2-carboxylic acid] |  |  | increase in endogenous levels of AMPKα pT172 | capable of inducing the activation of the AMPK complex | activates AMPK in a dose-dependent manner | increase in phosphorylation
